# From patent US10208007B2, “Use of strigolactones and strigolactone analogs for treating proliferative conditions” (The State of Israel, Ministry of Agriculture & Rural …, priority 2011, dated 2019)
# Where two headings read alike, the source gives them in different places.
# How the values were obtained:
# Format in all cases: cell-based, human
# [1] = test system: pT308 AKT; assay: Immunoblot of survival signaling; settings: MDA-MB-231 cells, 10 ppm
# Procedure: Protein concentration was determined using the BCA Protein Assay (Pierce), and 20-50 μg of lysate were separated in a 4-12% SDS-PAGE gel. After transfer, membranes were blocked for 15-30 min at room temperature in 5% BSA (Sigma) in Tris-buffered saline containing 0.1% Tween-20. Primary antibody was incubated for either 1.5 hours at room temperature or overnight at 4° C. Secondary antibody was incubated for 30-45 min at room temperature, and proteins were visualized with West Pico Stable (Pierce). All antibodies were used at 1:1000 dilution unless otherwise stated. pT308AKT, AKT, pT180/Y182, pT183/Y185 P38MAPK, pP38MAPK, pT202/Y204 pERK1/2, ERK1, pT183/Y185, pJNK1/2, JNK1, pT71ATF2, pT581MSK1, pT14 Cdc2, Cdc2, pT68Chk2 (cell signaling), pT334MAPKAPK, pS82HSP27 (Cell Signaling Technology, Danvers, Mass.), α-tubulin (Biomarkers, 1:50,000), Cyclin B1 (Santa Cruz Biotechnologies) and horseradish peroxidase-conjugated anti-rabbit IgG and anti-mouse IgG (1:5,000, Pierce).
# The PI3K/AKT pathway regulates a wide range of cellular functions including survival and proliferation. […] PDK1 phosphorylates AKT on T308, which is itself activated by phosphorylation on S241. Levels of pS241 PDK1 were reduced upon strigolactone treatment and correlated closely with reduced AKT phosphorylation observed in strigolactone treated cells (FIG. 14).
# [2] = test system: BJ fibroblasts; assay: Crystal violet monolayer growth assay; settings: up to 10 ppm, up to 10 days
# Procedure: (§1) Cells were seeded at 1500 (MDA-MB-231, MDA-MB-436 and BJ fibroblasts) or 4000 cells per well of 96 well plates. […] At the indicated time points, individual plates were fixed and stained with crystal violet-methanol solution (50 μl per well) for 15 minutes, washed several times with distilled water and plates were air dried overnight. Sodium citrate solution (0.1M) was used to solubilize bound crystal violet and optical densities were measured at 560 nm (Glomax®-Multi Detection plate reader, Promega).
# (§2) Cells (MDA-MB-231, MDA-MB-436 and BJ fibroblasts) were seeded at 1500 or 4000 cells per well of 96 well plates. […] At the indicated time points, individual plates were fixed and stained with crystal violet solution (0.5% crystal violet and 25% methanol) for 15 min, washed several times in distilled water and air dried overnight. Sodium citrate solution (0.1M) was used to solubilize bound crystal violet and optimal densities were measured at 560 nm (Glomax®—Multi Detection plate reader, Promega).
# (§3) The effect of GR-24 (FIG. 3) on long-term cancer cell line growth was assessed by crystal violet assay. MCF-7 (estrogen receptor positive (ER+), tumorigenic, nonmetastatic), (A) MDA-MB-231, MDA-MB-436 (ER negative (−), metastatic) and BJ fibroblasts (normal, non-neoplastic line) were treated with GR-24 at a dose range of 0.5 to 10 ppm (1.65-33 μM). Growth was monitored for up to 10 days. At the indicated time points, plates were stained with crystal violet. Data are reported as the Percent Absorbance (560 nm) of vehicle control. Average±standard deviations (SD). Student's t-test (2-tailed, paired) was used to evaluate GR-24 treated groups with vehicle (control) groups at final time point and regarded as being significant if p<0.05 (*), very significant if p<0.01 (**), extremely significant if p<0.001 (***). (B) Is a graph showing the light absorbance reading (560 nm) after 7 days exposure to the indicated doses of GR-24. Data expressed as a percentage of vehicle controls. Average of triplicate samples+SD. Horizontal line (---) marks 50% reduction in Absorbance (560 nm) relative to vehicle controls.
# [3] = test system: MDA-MB-231; assay: Crystal violet monolayer growth assay; settings: for IC50: after 7 days, read-out: IC50 of long-term proliferation
# Procedure: as §1, §2, §3
# [4] = test system: MDA-MB-231 mammospheres; assay: Mammosphere formation
# Procedure: Adherent cells were gently trypsinized, (0.05% trypsin/EDTA) washed twice in PBS and filtered through a […] cell sieve to obtain a single cell suspensions. Cells were diluted to a concentration of 10,000 cell/ml in serum-free phenol-red free MEBM (MEGM Bulletkit, Lonza) supplemented with 5 μg/ml bovine insulin, 20 ng/ml recombinant epidermal growth factor, 20 ng/ml basic fibroblast growth factor (Gibco), 1×B27 supplement, 0.5 μg/ml hydrocortisone (MEGM Bulletkit, Lonza). For MDA-MB-231 mammosphere cultures serum-free phenol red-free CnT-27 medium with growth additives (CellnTEC Advanced cell systems, Bern, Switzerland) was used as previously described. 0.1 ml was seeded per well of a Ultralow attachment 96 well plates. The following day the indicated doses of GR-24 (ppm) or vehicle alone (0.6% acetone f/c) were added. Media was replenished every 3-4 days. Self-renewal capacity of the mammospheres was determined by re-plating and producing further generations of mammospheres. Secondary mammospheres were cultivated by dissociation (trypsinization with gently vortexing) of 10-14 day old primary mammospheres. Single cell suspensions were obtained as described above.
# [5] = test system: ALDH1; assay: Aldefluor ALDH expression; settings: MCF-7 primary mammospheres; reduced from 6%
# Procedure: MCF-7 mammospheres were trypsinized, gently vortexed and passed through a 40 uM cell filter to produce single cell suspensions. Cells (5×10^5) were washed and re-suspended in growth media (Lonza). To identify the Aldefluor-stained cell population with ALDH1 enzymatic activity, the Aldefluor kit (Stem Cell Technologies), which is designed for optimal identification and isolation of stem cells through specific interaction with human ALDH1 was used. Briefly, cells were suspended in Aldefluor assay buffer containing uncharged ALDH1-substrate, BODIPY-aminoacetaldehyde (BAAA), and incubated for 45 min at 37° C., with gently vortexing every 15 min. BAAA is taken up by living cells through passive diffusion and then converted by intracellular ALDH into a negatively charged reaction product BODIPY-aminoacetate, which is retained inside cells expressing high levels of ALDH1, causing the cells to become brightly fluorescent. Fluorescent ALDH1-expressing cells were detected in the green fluorescence channel (520-540 nm) of a FACScan instrument (BD Biosciences). […] PI (Sigma) fluorescence was detected using the orange fluorescence channel. Cells incubated with BAAA and DEAB were used to establish the baseline fluorescence of cells and ALDH1-positive fraction. Data were analyzed by using Cell Quest software (BD Biosciences). […]
Structure (SMILES),pT308 AKT levels / inhibition of AKT phosphorylation [1],Growth compared to vehicle [2],"IC50 ([3]; Homo sapiens, MDA-MB-231, 168 h)",IC50 [3],Concentrations resulting in a significant reduction in growth compared to vehicle ([3]; up to 10 days),Mammosphere growth ([4]; 2.5 ppm),Mammosphere formation ([4]; 5 ppm),"Concentration to block mammosphere formation, fold lower than IC50 dose for monolayer growth ([4]; MDA-MB-231)",ALDH activity (ALDH positive cells) after treatment [5]
"CC1=CC(O/C=C2\Cc3c(n(C)c4ccccc34)C2=O)OC1=O (racemic) [EG-5, (±) (2E)-4-methyl-2-(4-methyl-5-oxo-2,5-dihydrofuran-2-yloxymethylene)-1,4-dihydro-2H-cyclopenta[b]indol-3-one]","slight delay in the inhibition of AKT phosphorylation, occurring between 8 and 24 hours",–,–,–,–,–,–,–,–
"CC1=CC(O/C=C2\Cc3c(n(C)c4cc(-c5cccs5)ccc34)C2=O)OC1=O (racemic) [MEB-55, (±) 2E-4-methyl-2-(4-methyl-5-oxo-2,5-dihydrofuran-2-yloxymethylene)-6-thiophen-2-yl-1,4-dihydro-2H-cyclopenta[b]indol-3-one]",decreased dramatically between 4 and 8 hours,–,–,–,–,–,–,–,–
"CC1=C[C@H](O/C=C2/C(=O)O[C@@H]3c4ccccc4C[C@H]23)OC1=O (relative stereo) [GR-24, (3aR*,8bS*,E)-3-(((R*)-4-methyl-5-oxo-2,5-dihydrofuran-2-yloxy)methylene)-3,3a,4,8b-tetrahydro-2H-indeno[1,2-b]furan-2-one]",–,no significant reduction in growth,22.1 µM,18.8 µM,2.5-5 ppm,severely attenuated,completely blocked,2.7 fold,2%
